The text below walks through data of article PMC5853558, “De novo identification of lipid II binding lipopeptides with antibacterial activity against vancomycin-resistant bacteria” (Chemical Science, 2017).

The test system of one assay is lipid II. Briefly: Lipid II antagonization assay. The class given is cell-based, M. luteus. On the set-up: key to Result with antagonist Lipid II: +: antagonization of antibiotic activity; -: no antagonization of antibiotic activity. The conditions noted are these: for Result with antagonist Lipid II: Supplemental table S10, peptide at 4x MIC, antagonist at 4 molar equivalents, M. luteus 1 x 10^6 CFU/ml, 16 h at 30°C, growth observed visually; for Effect of pre-incubation with lipid II on antibacterial activity: premixed with an excess of lipid II before addition of a live culture of M. luteus. How it is done: (§1) To assess the role of lipid II in the mode of action of the lipopeptides a lipid II antagonization assay was employed.[18],[33] This assay was performed by premixing P8-D-C10 or the optimized P8-D-(S6R, R15A)-C10 with an excess of lipid II prior to addition of a live culture of M. luteus. […] To probe the stereochemical aspects of lipid II recognition by the optimized P8-D-(S6R, R15A)-C10 lipopeptide we also prepared and tested the corresponding enantiomeric L-peptide species P8-L-(S6R, R15A)-C10. […] Given that lipid II is a chiral biomolecule we had expected the enantiomeric lipopeptides to have different activities based on the assumption that they would interact differently with lipid II. To further investigate this phenomenon we employed the same lipid II antagonization assay described above. […] To explain this observation we hypothesize that the two enantiomeric peptides interact primarily with the pyrophosphate moiety of lipid II and are therefore less influenced by the chiral elements present elsewhere in the lipid II molecule. The pyrophosphate group is known to be a binding site for many natural occurring lipid II binding peptides.[15],[16] […] To test the hypothesis that both the P8-D-(S6R, R15A)-C10 and P8-L-(S6R, R15A)-C10 lipopeptides interact with the pyrophosphate moiety we performed an additional antagonizaiton experiment using C55-PP.
(§2) Section 4 Biological and biochemical experiments
(§3) 4.1 Minimum inhibitory concentration assay
(§4) MIC values were determined by using the broth microdilution method. Peptides were dissolved first in DMSO and diluted with broth so that the final peptide concentration was 1024 µg/ml and the DMSO concentration was 4%. Peptide serial dilutions were made in TSB in a polypropylene 96-wells plate using 50 µl volumes. An overnight culture of the organism of interest was diluted to and OD600 of 0.01 and grown until they reach 0.5. The culture was then diluted to 1 x 10^6 CFU/ml and 50 µl of this suspension was added to each well. The highest concentrations were then 512 µg/ml peptide and 2% DMSO. The plates were incubated at the preferred growth temperature of the organism that was used and 250 rpm. […] When […]
(§5) determining the MICs of the lipidated peptides, the lipopeptides were first dissolved in DMSO and diluted with TSB so that the peptide concentration was 128 µg/ml and the DMSO concentration was 4%. After inoculation the highest peptide concentration evaluated was 64 µg/ml and the DMSO concentration was 2%. A DMSO control was tested for each strain to ensure the DMSO did not affect the growth of the particular strain. […]
(§6) 4.4 Antagonization assays
(§7) Stock solutions of each peptide antibiotic were prepared so that their final concentration in the assay would be 4x MIC. Peptides were transferred to a 96 wells plate and lipid II or C15-P (farnesyl-phosphate) was added at 4 molar equivalents in a final volume of 50 µl. Each well received 50 µl of bacterial suspension (M. luteus) at 1 x 10^6 CFU/ml and the plates were incubated for 16 h at 250 rpm and 30°C. Growth was observed visually (see supplemental table S10 for results).

The subject of another assay is E. faecium E980. Briefly: UDP-MurNAc-pentapeptide accumulation assay. The class given is cell-based, Enterococcus faecium. To be noted: E. faecium E980, peptides at 10x MIC, 30 min, chloramphenicol 130 µg/ml pre-treatment, LCMS; triplicate measurements. As for the experimental part:
We next examined the effect of the optimized P8-D-(S6R, R15A)-C10 lipopeptide on cell wall biosynthesis in live bacteria. Specifically, we employed an assay where the accumulation of the soluble intracellular lipid II precursor UDP-MurNAc-pentapeptide is measured in response to antibiotic administration. Antibiotics known to interfere with cell wall biosynthesis by sequestration of lipid II (i.e. vancomycin) can lead to UDP-MurNAc-pentapeptide accumulation in the cytosol which can then be extracted and assessed by chromatographic means.[18],[33] […] The effect of the lipopeptides on bacterial cell morphology was further investigated using scanning electron microscopy. To this end, VRE 155 cells were imaged after exposure to either P8-D-(S6R, R15A)-C10 or nisin at 2× the MIC.
as §2, §3
MIC values were determined by using the broth microdilution method. […]
determining the MICs of the lipidated peptides, the lipopeptides were first dissolved in DMSO and diluted with TSB so that the peptide concentration was 128 µg/ml and the DMSO concentration was 4%. After inoculation the highest peptide concentration evaluated was 64 µg/ml and the DMSO concentration was 2%. […]
Hemolysis was determined by measuring the absorption at 414 nm to measure the amount of free […]

Another assay concerns C55-PP. Briefly: Antagonization assay with C55-PP. Details: key to Result with antagonist C55-PP: +: antagonization of antibiotic activity; -: no antagonization of antibiotic activity. The class given is cell-based, M. luteus. To be noted: for Result with antagonist C55-PP: Supplemental table S10, peptide at 4x MIC, M. luteus, 16 h at 30°C, growth observed visually; for Effect of adding C55-PP on antibiotic activity: antagonization experiment using C55-PP. How it is done: as §1, §2, §3, §4, §5, §6, §7

A further assay has as its system E. faecium (VRE155). Briefly: microbe, parasite or virus in culture. In kind it is cell-based, Enterococcus faecium. An outline of the steps: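 TSB microdilution MIC. Top final peptide 512 µg/ml, lipopeptides 64 µg/ml, DMSO 2%; cells grown to OD600 0.5, suspension at 1 x 10^6 CFU/ml added 1:1; shaken 250 rpm at strain's optimal temperature; DMSO-only control per strain.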

[1] abbreviates: Supplemental table S9, vancomycin-resistant isolate, MIC values of Table 2 expressed in µM.
[2] abbreviates: Table 2, vancomycin-resistant isolate from hospitalized patients, broth microdilution in TSB, 16 h, highest tested 64 µg/ml.

The structures appear in SMILES notation. Converted amounts (≈) assume the structure as drawn. *1 amine or outer side, *2 acyl side, *3 side chain or, on linkers, in order; H or OH if unused. Where a SMILES comes first, the peptide text is derived from it. Bridges are numbered along the chain shown (N, C = ends). [ ]: non-standard residue; d: D form. The star is where a group is joined. TBMB = c1c(C[*:1])cc(C[*:3])cc1C[*:2]; NHDecyl = CCCCCCCCCCN*

`CCCCCCCCCCNC(=O)CNC(=O)[C@@H]1CSCc2cc3cc(c2)CSC[C@H](NC(=O)[C@H](CC(C)C)NC(=O)[C@H](CC(C)C)NC(=O)[C@H](CCCNC(=N)N)NC(=O)[C@H](CCC(N)=O)NC(=O)[C@H](CC(C)C)NC(=O)[C@H](CC(C)C)NC(=O)[C@@H](NC(=O)[C@H](C)N)CSC3)C(=O)N2CCC[C@H]2C(=O)N[C@@H](Cc2ccc(O)cc2)C(=O)N[C@@H](CO)C(=O)N[C@@H]([C@@H](C)O)C(=O)N[C@@H](Cc2c[nH]cn2)C(=O)N[C@@H](C)C(=O)N1` [P8-L-(S6R, R15A)-C10] (H-ACLLQRLLCPYSTHACG-NHDecyl; linker 2-9-16 via TBMB; N-terminus assumed): in the assay on lipid II, the “Result with antagonist Lipid II” value is given as “+” and the “Effect of pre-incubation with lipid II on antibacterial activity” value was “effectively antagonized”. The “Accumulation of UDP-MurNAc-pentapeptide” value in the assay on E. faecium E980 is given as “significant accumulation”. For the same compound, in the assay with C55-PP, the “Result with antagonist C55-PP” value is “+” and the “Effect of adding C55-PP on antibiotic activity” value is on record as “complete loss of antibiotic activity”. Also, the “MIC E. faecium (VRE155)” value against E. faecium (VRE155) (setting [1]) is 7.6 µM (≈ 16 µg/mL). The “MIC E. faecium (VRE155)” value with E. faecium (VRE155) (setting [2]) is given as 8 μg mL^–1.

On to `CCCCCCCCCCNC(=O)CNC(=O)[C@H]1CSCc2cc3cc(c2)CSC[C@@H](NC(=O)[C@@H](CC(C)C)NC(=O)[C@@H](CC(C)C)NC(=O)[C@@H](CCCNC(=N)N)NC(=O)[C@@H](CCC(N)=O)NC(=O)[C@@H](CC(C)C)NC(=O)[C@@H](CC(C)C)NC(=O)[C@H](NC(=O)[C@@H](C)N)CSC3)C(=O)N2CCC[C@@H]2C(=O)N[C@H](Cc2ccc(O)cc2)C(=O)N[C@H](CO)C(=O)N[C@H]([C@H](C)O)C(=O)N[C@H](Cc2c[nH]cn2)C(=O)N[C@H](C)C(=O)N1` [P8-D-(S6R, R15A)-C10] (H-[dA][dC][dL][dL][dQ][dR][dL][dL][dC][dP][dY][dS][dT][dH][dA][dC]G-NHDecyl; linker 2-9-16 via TBMB; N-terminus assumed), for which, in the assay with lipid II, the “Result with antagonist Lipid II” value is listed as “+” and the “Effect of pre-incubation with lipid II on antibacterial activity” value was “antagonization of antibacterial activity”. Also, the “Accumulation of UDP-MurNAc-pentapeptide” value in the assay with E. faecium E980 is “significant accumulation”. Besides, in the assay with C55-PP, the “Result with antagonist C55-PP” value is given as “+” and the “Effect of adding C55-PP on antibiotic activity” value is “complete loss of antibiotic activity”. For the same compound, in the assay on E. faecium (VRE155) (setting [1]), the “MIC E. faecium (VRE155)” value is 7.6 µM (≈ 16 µg/mL). The “MIC E. faecium (VRE155)” value in the assay on E. faecium (VRE155) (setting [2]) amounted to 8 μg mL^–1.
